These results are taken from PubChem BioAssay (NCI).

Each structure is given as a SMILES string. Where “and” joins values, the source holds several entries; their conditions need not be identical. Equal entries are not always repeated.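 Grown in 96-well plates, cells were treated for 48 hours with each compound at five concentrations. Insufficient inhibition: endpoint recorded as highest concentration tested. Abbreviation: GI50, concentration required for 50% inhibition of growth. TGI marks complete inhibition of growth.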

Test systems include K-562 leukemia; U251 CNS; PC-3 prostate; KM12 colon; MCF7 breast; TK-10 renal; SF-268 CNS; UO-31 renal; HCT-116 colon; HOP-62 NSCLC.
Holding throughout (assay): DTP human tumour cell line panel, 48 h

As for `COc1cc([C@H]2OC[C@H]3[C@@H]2CO[C@@H]3c2cc(OC)c3c(c2)OCO3)cc(OC)c1OC`, the TGI in the test on K-562 leukemia, with U251 CNS, in the test with PC-3 prostate, in the test on KM12 colon, in the test on MCF7 breast and in the test with TK-10 renal was over 100 µM throughout. Further, the TGI with SF-268 CNS, with UO-31 renal, with HCT-116 colon and with HOP-62 NSCLC was over 100 µM in each case.

As to `COc1cc(C(=O)NC2CCN(C)CC2)c(F)cc1Nc1ncc2c(n1)N(C1CCCC1)CC(F)(F)C(=O)N2C`, the 50% growth inhibitory concentration (GI50) (as a rule, the concentration at which growth is held to half of that of the control) in the test on K-562 leukemia was under 0.01 µM; in the test with U251 CNS it was under 0.0204 µM; with PC-3 prostate, under 0.0201 µM; in the test with KM12 colon, under 0.01 µM; in the test with MCF7 breast, under 0.01 µM; with SF-268 CNS, under 0.025 µM. For the same compound, the concentration for 50% growth inhibition (GI50) with HCT-116 colon is under 0.0142 µM; in the test with HOP-62 NSCLC it was under 0.0141 µM. Further, the total growth inhibition concentration (TGI) (commonly the concentration at which net growth stops) in the test on K-562 leukemia was determined as 4 µM; in the test on U251 CNS it was 14.5 µM; in the test with PC-3 prostate, 18.3 µM; in the test with KM12 colon, 14 µM; with MCF7 breast it was 11.9 µM; in the test with TK-10 renal, 12.6 µM. For the same compound, the concentration for total growth inhibition (TGI) is 12.1 µM in the test with SF-268 CNS, 10.5 µM with UO-31 renal, 12 µM in the test on HCT-116 colon and 13.2 µM in the test with HOP-62 NSCLC.

Take `CC#CC(=O)SCCNC(=O)CC`: the TGI in the test on K-562 leukemia, in the test on U251 CNS, in the test with PC-3 prostate, in the test on KM12 colon, in the test with MCF7 breast and with TK-10 renal was over 10 µM in each case. The TGI in the test on SF-268 CNS, in the test with UO-31 renal, with HCT-116 colon and in the test on HOP-62 NSCLC was over 10 µM throughout.

Take `CCOc1ccccc1N=Nc1c(C)[nH]n(-c2nc(-c3ccccc3)cs2)c1=O`: the GI50 in the test with K-562 leukemia was over 100 µM; in the test on U251 CNS, 36.2 µM; in the test with PC-3 prostate, 34.7 µM; in the test with KM12 colon, over 100 µM; with MCF7 breast, 12.4 µM; in the test with TK-10 renal it was 43.4 µM. Besides, the GI50 in the test with SF-268 CNS is 35.4 µM; in the test on UO-31 renal, over 65.1 µM; in the test with HCT-116 colon, 52.3 µM; in the test on HOP-62 NSCLC, 35.1 µM. Besides, the TGI in the test with K-562 leukemia was over 100 µM; in the test with U251 CNS it was over 100 µM; in the test on PC-3 prostate it was over 100 µM; in the test on KM12 colon it was over 100 µM; with MCF7 breast, over 100 µM; in the test on TK-10 renal it was over 94.2 µM. Also, the TGI in the test on SF-268 CNS, in the test with UO-31 renal, in the test with HCT-116 colon and in the test with HOP-62 NSCLC was over 100 µM throughout.

With `O=[N+]([O-])c1cccc([As]=[As]c2cccc([N+](=O)[O-])c2)c1` (stereo unspecified), the 50% growth inhibitory concentration (GI50) with K-562 leukemia is 0.0327 µM; in the test with U251 CNS, 0.103 µM; with PC-3 prostate it was 0.147 µM; with KM12 colon it was 0.172 µM; in the test with MCF7 breast, 0.0327 µM; in the test with TK-10 renal it was 0.132 µM. Further, the GI50 in the test on SF-268 CNS is 0.0819 µM; with UO-31 renal it was 0.119 µM; in the test with HCT-116 colon, 0.0627 µM; in the test with HOP-62 NSCLC it was 0.159 µM. For the same compound, the TGI with K-562 leukemia came out at 0.106 µM; with U251 CNS, 0.22 µM; in the test on PC-3 prostate it was 0.297 µM; with KM12 colon, 0.343 µM; with MCF7 breast, 0.137 µM; in the test with TK-10 renal, 0.266 µM. Besides, the TGI worked out at 0.228 µM in the test on SF-268 CNS, 0.255 µM in the test on UO-31 renal, 0.181 µM in the test with HCT-116 colon and 0.301 µM with HOP-62 NSCLC.

In the case of `CC(C)(O)CC(=O)NCCn1ccc2ncnc(Nc3ccc(Oc4cccc(C(F)(F)F)c4)c(Cl)c3)c21`, the GI50 in the test on K-562 leukemia was 4.54 µM; in the test on U251 CNS, 3.45 µM; with PC-3 prostate, 3.46 µM; with KM12 colon, 3.67 µM; with MCF7 breast, 2.98 µM; in the test on TK-10 renal it was 0.363 µM. Also, the GI50 in the test on SF-268 CNS was 3.5 µM; in the test with UO-31 renal, 1.12 µM; in the test on HCT-116 colon, 2.92 µM; in the test on HOP-62 NSCLC, 4.7 µM. Also, the TGI in the test with K-562 leukemia, in the test with U251 CNS, in the test with PC-3 prostate, with KM12 colon, in the test on MCF7 breast and with TK-10 renal was over 10 µM throughout. The TGI in the test with SF-268 CNS, in the test with UO-31 renal, in the test with HCT-116 colon and in the test on HOP-62 NSCLC was over 10 µM each time.

In the case of `CCCOC(=O)N1CCN(/[N+]([O-])=N/Oc2ccc([N+](=O)[O-])cc2[N+](=O)[O-])CC1`, the GI50 was 0.505 µM in the test on K-562 leukemia; 2.03 µM with U251 CNS; 4.14 µM with PC-3 prostate; 2.01 µM in the test on KM12 colon; 0.446 µM in the test with MCF7 breast; 3.87 µM with TK-10 renal. Further, the GI50 is 3.19 µM in the test on SF-268 CNS, 3.5 µM with UO-31 renal, 0.301 µM with HCT-116 colon and 2.58 µM in the test with HOP-62 NSCLC. In addition, the TGI was over 100 µM with K-562 leukemia; 3.96 µM with U251 CNS; 15.1 µM with PC-3 prostate; 5.66 µM in the test with KM12 colon; 2.23 µM in the test with MCF7 breast; 14.9 µM in the test with TK-10 renal. Also, the TGI in the test on SF-268 CNS is 11.1 µM; in the test on UO-31 renal, 48.9 µM; in the test with HCT-116 colon, 1.17 µM; with HOP-62 NSCLC it was 6.4 µM.

For the compound `CCN(CC)Cc1ccc(Nc2nccc(-c3cnn4ncccc34)n2)cc1`, the concentration for 50% growth inhibition (GI50) in the test on K-562 leukemia was 0.0682 µM; in the test on U251 CNS, 0.014 µM; with PC-3 prostate, 0.0184 µM; with KM12 colon it was 0.0101 µM; in the test with MCF7 breast, 0.017 µM; in the test on TK-10 renal, 0.0236 µM. Further, the GI50 was 0.0145 µM in the test with SF-268 CNS, 0.0114 µM in the test on UO-31 renal, 0.00984 µM with HCT-116 colon and 0.0145 µM with HOP-62 NSCLC. The TGI was over 25 µM in the test on K-562 leukemia; over 25 µM in the test with U251 CNS; over 25 µM in the test with PC-3 prostate; 0.102 µM in the test on KM12 colon; 14.8 µM with MCF7 breast; 0.188 µM in the test with TK-10 renal. Further, the TGI with SF-268 CNS is 0.607 µM; with UO-31 renal, over 8.73 µM; with HCT-116 colon, over 25 µM; with HOP-62 NSCLC it was over 25 µM.

For the compound `C/C=C(\C)C(=O)O[C@H]1C=CC(=O)O[C@@H]1CC[C@H](O)[C@H](C)O`, the GI50 in the test on K-562 leukemia is 33 µM; with U251 CNS, 55.3 µM; in the test with PC-3 prostate it was over 86.2 µM; in the test with KM12 colon it was 48.2 µM; with MCF7 breast, 32.6 µM; with TK-10 renal it was 50.6 µM. For the same compound, the GI50 in the test on SF-268 CNS was 28.8 µM; in the test on UO-31 renal, 20.5 µM; in the test on HCT-116 colon, 21.4 µM; in the test with HOP-62 NSCLC it was over 100 µM. In addition, the TGI with K-562 leukemia, in the test on U251 CNS, in the test on PC-3 prostate, with KM12 colon, in the test with MCF7 breast and in the test on TK-10 renal was over 100 µM each time. Also, the TGI in the test on SF-268 CNS was over 100 µM; in the test with UO-31 renal, over 67.4 µM; in the test on HCT-116 colon it was 67.2 µM; with HOP-62 NSCLC, over 100 µM.

On to `COC(=O)c1cc2ccc(OC(C)=O)c(OC(C)=O)c2cn1`, for which the GI50 in the test on K-562 leukemia is 1.86 µM; in the test on U251 CNS, 12.7 µM; in the test with MCF7 breast, 16.7 µM. The TGI is 7.32 µM and 3.75 µM in the test on K-562 leukemia; 28.2 µM in the test on U251 CNS; 50.9 µM in the test on PC-3 prostate; 33.6 µM with KM12 colon; 6 µM and 35.5 µM with MCF7 breast; 34.9 µM with TK-10 renal. For the same compound, the TGI in the test with SF-268 CNS was 53 µM; in the test with UO-31 renal it was 30 µM; in the test with HCT-116 colon, 32.7 µM; in the test on HOP-62 NSCLC, 42.7 µM.

Regarding `CN(C)c1ccc2nc3ccc(=[N+](C)C)cc-3sc2c1`, the GI50 is 0.469 µM and 0.509 µM in the test on K-562 leukemia; 0.248 µM and 0.341 µM in the test with U251 CNS; 0.161 µM and 0.288 µM with PC-3 prostate; 0.724 µM and 0.696 µM with KM12 colon; 0.304 µM and 0.324 µM with MCF7 breast; 3.98 µM and 1.42 µM in the test on TK-10 renal. In addition, the GI50 with SF-268 CNS was 0.446 µM and 1.08 µM; with UO-31 renal, 3.65 µM and 6.28 µM; in the test on HCT-116 colon it was 0.29 µM and 0.373 µM; in the test on HOP-62 NSCLC, 2.47 µM and 4.89 µM. Besides, the TGI with K-562 leukemia is 18.7 µM and 48.5 µM; with U251 CNS, 2.23 µM and 11.2 µM; with PC-3 prostate it was 2.71 µM and 16.2 µM; in the test with KM12 colon, 19.6 µM and 15.7 µM; in the test on MCF7 breast it was 12.2 µM and 14.5 µM; in the test with TK-10 renal it was 16.1 µM and 17.2 µM. For the same compound, the total growth inhibition concentration (TGI) is 15.4 µM and 15.1 µM with SF-268 CNS; 19.8 µM and 29.1 µM in the test with UO-31 renal; 2.45 µM and 5.76 µM with HCT-116 colon; 15.9 µM and 21.9 µM in the test with HOP-62 NSCLC.

Consider `Cc1ccc(S(=O)(=O)Nc2cccc3[nH]c(C(F)(F)F)nc23)cc1`, for which the GI50 is 0.269 µM in the test with K-562 leukemia; 0.466 µM with U251 CNS; 0.56 µM in the test on PC-3 prostate; 0.347 µM with KM12 colon; 0.389 µM with MCF7 breast; 2.98 µM in the test on TK-10 renal. In addition, the GI50 in the test on SF-268 CNS is 1.87 µM; in the test with UO-31 renal, 1.3 µM; in the test with HCT-116 colon it was 0.414 µM; in the test on HOP-62 NSCLC, 1.21 µM. Moreover, the TGI with K-562 leukemia is over 100 µM; with U251 CNS it was 21.4 µM; in the test with PC-3 prostate it was over 68.8 µM; with KM12 colon, 26.8 µM; in the test with MCF7 breast it was over 54.5 µM; with TK-10 renal, 61.8 µM. Moreover, the TGI with SF-268 CNS was 54.6 µM; in the test on UO-31 renal, over 57.5 µM; in the test on HCT-116 colon it was over 100 µM; in the test on HOP-62 NSCLC, 41.8 µM.
